Where a name gives a salt, the structure may show the parent alone. Blank lines part the entries; values can stand above or below the compound they belong to. Activity calls are given as the source filed them.
Columns and labels:
[1] = molecular target: Voltage-gated inwardly rectifying potassium channel KCNH2 (Homo sapiens, UniProt Q12809); conditions: Potency;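 note: confirmatory quantitative high-throughput screen measuring inhibition of hERG channel activity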
Prothrombin = Prothrombin (Homo sapiens, UniProt P00734); test: Thrombin 1536 HTS Dose Response Confirmation. [Related pubchem assays: 1046 (Thrombin 1536 HTS; hits were confirmed in this assay)]; format: functional
[2] = molecular target: T1, Corticotropin-releasing factor receptor 2/Corticotropin-releasing factor-binding protein (Homo sapiens, UniProt P24387+Q13324); test: activators of CRF receptor 2 with binding protein – uHTS hits, confirmation (AID 602473); format: functional; conditions: read-out: EC50_Mean
T1 sequence (Q13324 whole entry): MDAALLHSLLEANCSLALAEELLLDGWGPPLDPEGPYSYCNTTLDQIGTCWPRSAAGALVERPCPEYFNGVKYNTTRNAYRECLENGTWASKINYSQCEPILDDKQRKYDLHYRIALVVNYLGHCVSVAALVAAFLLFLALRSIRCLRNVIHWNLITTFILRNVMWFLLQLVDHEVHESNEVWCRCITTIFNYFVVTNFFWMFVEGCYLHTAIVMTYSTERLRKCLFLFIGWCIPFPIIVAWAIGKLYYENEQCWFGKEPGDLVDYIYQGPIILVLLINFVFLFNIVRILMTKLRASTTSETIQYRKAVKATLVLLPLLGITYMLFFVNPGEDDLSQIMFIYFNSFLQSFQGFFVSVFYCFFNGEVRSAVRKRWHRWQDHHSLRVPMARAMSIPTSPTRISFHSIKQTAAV
T1 sequence (P24387 whole entry): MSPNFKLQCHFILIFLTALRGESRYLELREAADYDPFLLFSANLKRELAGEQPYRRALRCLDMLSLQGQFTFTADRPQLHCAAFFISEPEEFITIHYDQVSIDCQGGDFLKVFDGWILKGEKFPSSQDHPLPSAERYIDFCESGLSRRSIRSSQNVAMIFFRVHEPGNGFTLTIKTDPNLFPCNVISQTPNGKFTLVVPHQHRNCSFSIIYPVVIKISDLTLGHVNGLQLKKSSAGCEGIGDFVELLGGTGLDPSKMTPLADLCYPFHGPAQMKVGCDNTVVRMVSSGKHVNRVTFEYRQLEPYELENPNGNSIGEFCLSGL

HeLa = test: HeLa cell cytotoxicity, dose response, cytotoxicity control for MITF activator project, CellTiter-Glo luminescence, cherry-pick samples (AID 540259); format: functional, cell-based; conditions: Homo sapiens
[3] = molecular target: T2, Heat shock factor protein 1 (Mus musculus, UniProt P38532); test: HSF1 potentiators in luciferase reporter cells, confirmation, cell-based, NIH3T3, luminescence, dose retest (AID 435004); format: functional;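 note: stress induced by proteasome inhibitor MG132 added 30 min after compound; luciferase reporter driven by HSF1 response element in NIH3T3 cells; actives raise luminescence as potentiators of the MG132 stress response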
T2 sequence (P38532 whole entry): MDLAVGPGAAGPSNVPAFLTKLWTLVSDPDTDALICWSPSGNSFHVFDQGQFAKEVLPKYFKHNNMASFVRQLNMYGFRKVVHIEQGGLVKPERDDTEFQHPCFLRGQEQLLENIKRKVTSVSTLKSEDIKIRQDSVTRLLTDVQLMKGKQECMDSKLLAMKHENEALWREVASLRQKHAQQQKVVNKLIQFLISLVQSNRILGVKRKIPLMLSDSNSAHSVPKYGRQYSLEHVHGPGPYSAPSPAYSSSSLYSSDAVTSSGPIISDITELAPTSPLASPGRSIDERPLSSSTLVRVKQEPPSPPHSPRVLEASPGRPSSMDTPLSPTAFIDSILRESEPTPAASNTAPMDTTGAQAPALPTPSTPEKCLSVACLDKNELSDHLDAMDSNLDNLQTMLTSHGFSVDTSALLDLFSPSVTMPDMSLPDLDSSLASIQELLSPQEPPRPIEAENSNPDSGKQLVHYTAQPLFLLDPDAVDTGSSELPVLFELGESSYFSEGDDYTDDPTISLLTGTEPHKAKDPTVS

Genome polyprotein = Genome polyprotein (dengue virus type 2, UniProt P29990); test: Dengue-2 NS5 methyltransferase inhibitors, primary screen, biochemical, confirmation dose response (AID 588689); format: functional
[4] = molecular target: T3, Apoptotic protease-activating factor 1 (Homo sapiens, UniProt O14727); format: functional
T3 sequence (O14727 whole entry): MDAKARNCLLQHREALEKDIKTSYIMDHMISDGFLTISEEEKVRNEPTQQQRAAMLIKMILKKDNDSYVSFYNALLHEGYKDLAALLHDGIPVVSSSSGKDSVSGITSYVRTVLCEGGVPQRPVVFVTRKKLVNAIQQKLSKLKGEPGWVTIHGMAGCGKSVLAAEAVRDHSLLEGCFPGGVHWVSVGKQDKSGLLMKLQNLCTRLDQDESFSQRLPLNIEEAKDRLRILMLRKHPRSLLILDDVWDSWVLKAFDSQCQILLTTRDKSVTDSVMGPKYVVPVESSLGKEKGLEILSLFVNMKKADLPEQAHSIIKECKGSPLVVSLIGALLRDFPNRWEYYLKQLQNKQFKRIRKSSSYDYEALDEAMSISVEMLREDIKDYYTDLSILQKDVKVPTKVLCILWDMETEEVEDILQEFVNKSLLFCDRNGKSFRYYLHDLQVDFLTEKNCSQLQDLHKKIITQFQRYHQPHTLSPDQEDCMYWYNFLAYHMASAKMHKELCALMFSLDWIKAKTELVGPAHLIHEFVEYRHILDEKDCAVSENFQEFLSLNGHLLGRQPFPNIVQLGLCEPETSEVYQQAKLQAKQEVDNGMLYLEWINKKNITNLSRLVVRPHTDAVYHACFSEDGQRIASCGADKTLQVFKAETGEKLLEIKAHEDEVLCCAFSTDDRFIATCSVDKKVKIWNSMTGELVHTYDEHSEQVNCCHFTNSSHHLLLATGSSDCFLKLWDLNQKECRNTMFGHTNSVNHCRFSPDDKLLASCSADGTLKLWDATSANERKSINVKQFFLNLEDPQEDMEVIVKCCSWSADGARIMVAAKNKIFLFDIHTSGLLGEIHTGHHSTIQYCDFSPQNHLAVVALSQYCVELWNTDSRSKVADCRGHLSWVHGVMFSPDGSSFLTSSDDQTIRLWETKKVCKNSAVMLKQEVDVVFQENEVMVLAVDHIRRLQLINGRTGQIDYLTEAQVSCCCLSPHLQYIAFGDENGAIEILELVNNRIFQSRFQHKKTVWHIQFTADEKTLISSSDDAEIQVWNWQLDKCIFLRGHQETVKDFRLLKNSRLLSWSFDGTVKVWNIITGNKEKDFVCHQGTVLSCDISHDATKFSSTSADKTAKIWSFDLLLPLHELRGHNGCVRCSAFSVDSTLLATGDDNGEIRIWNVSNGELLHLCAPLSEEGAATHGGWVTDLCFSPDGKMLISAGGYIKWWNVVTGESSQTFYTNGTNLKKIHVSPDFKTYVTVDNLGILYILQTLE

[5] = molecular target: T4, Polyadenylate-binding protein 1 (Homo sapiens, UniProt P11940); test: PABP1 MLLE–PAM2 interaction inhibitors, dose response, miRNA deadenylation inhibitor project, biochemical, fluorescence polarization, Cy5-PAM2 peptide, secondary (AID 602260); format: functional; conditions: read-out: IC50_Mean
[6] = molecular target: T4, Polyadenylate-binding protein 1; test: PABP1 MLLE–PAM2 binding inhibitor potency, dose response, biochemical, fluorescence polarization, FITC-PAM2 peptide (AID 602259); format: functional; conditions: read-out: IC50_Mean
Estrogen receptor = molecular target: T5, Estrogen receptor (Homo sapiens, UniProt P03372);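 note: potency for inhibiting coactivator peptide recruitment to the receptor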
T5 sequence (P03372 whole entry): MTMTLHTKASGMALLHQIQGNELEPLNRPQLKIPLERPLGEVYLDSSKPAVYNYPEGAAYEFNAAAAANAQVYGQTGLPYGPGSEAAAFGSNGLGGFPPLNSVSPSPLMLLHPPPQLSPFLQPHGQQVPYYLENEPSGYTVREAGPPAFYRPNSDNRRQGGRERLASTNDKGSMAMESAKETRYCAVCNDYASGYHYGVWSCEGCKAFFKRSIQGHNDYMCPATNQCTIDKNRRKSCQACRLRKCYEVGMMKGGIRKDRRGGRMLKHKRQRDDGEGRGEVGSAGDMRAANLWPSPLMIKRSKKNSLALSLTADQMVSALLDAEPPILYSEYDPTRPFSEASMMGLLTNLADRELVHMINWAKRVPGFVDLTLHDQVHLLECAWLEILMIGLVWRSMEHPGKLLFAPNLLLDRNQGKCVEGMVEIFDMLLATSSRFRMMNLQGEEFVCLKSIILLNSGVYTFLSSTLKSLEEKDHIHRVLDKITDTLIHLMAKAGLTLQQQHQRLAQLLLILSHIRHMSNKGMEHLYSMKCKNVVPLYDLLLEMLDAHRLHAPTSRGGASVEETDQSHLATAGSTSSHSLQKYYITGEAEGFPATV

[7] = MC4R antagonists, dose response, counter-screen for LGR2 antagonist project, cell-based, plate reader, cherry pick (AID 743444); format: functional;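 note: transfected HEK 293 cells stimulated with alpha-MSH peptide; potency of inhibitors of the alpha-MSH evoked signal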
[8] = LGR2 antagonists, dose response, cell-based, HEK293, CRE-luciferase reporter, cherry pick, set 2 (AID 743343); format: functional;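 note: transfected cells were stimulated with diluted bursicon conditioned medium after compound addition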
[9] = HepG2 cell cytotoxicity, dose response, cytotoxicity control, plate reader, cherry-pick, antagonist series (AID 743416); format: functional, cell-based
[10] = A549 cell cytotoxicity, dose response, cytotoxicity control, plate reader, cherry-pick, antagonist series (AID 743412); format: functional, cell-based
BJ [11] = test: cells; format: functional, cell-based; conditions: Homo sapiens
BJ [12] = test: cytotoxicity toward BJ-TERT fibroblasts, dose response, cell-based, RAS-independent, luminescence (AID 1933); format: functional; conditions: Homo sapiens
BJ [13] = test: cytotoxicity toward BJ-TERT-LT-ST fibroblasts, dose response, cell-based, RAS-independent, luminescence (AID 1935); format: functional; conditions: Homo sapiens;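 note: BJ fibroblasts immortalized with TERT plus LT and ST oncogenes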
BJ [14] = test: cytotoxicity toward Ras-transformed BJeLR fibroblasts, dose response, cell-based, alamar blue fluorescence, cherrypicked samples (AID 2631); format: functional; conditions: Homo sapiens;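 note: confirmatory dose-response assay in RAS-dependent BJ fibroblasts engineered with TERT, LT and ST, with cytotoxicity read by fluorescence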
[15] = cytotoxicity toward DRD oncogenic fibroblasts, dose response, cell-based, non-viral oncogenic, luminescence (AID 1934); format: functional; conditions: Homo sapiens

Chain of Voltage-gated inwardly rectifying potassium channel KCNH2 (Q12809 whole entry): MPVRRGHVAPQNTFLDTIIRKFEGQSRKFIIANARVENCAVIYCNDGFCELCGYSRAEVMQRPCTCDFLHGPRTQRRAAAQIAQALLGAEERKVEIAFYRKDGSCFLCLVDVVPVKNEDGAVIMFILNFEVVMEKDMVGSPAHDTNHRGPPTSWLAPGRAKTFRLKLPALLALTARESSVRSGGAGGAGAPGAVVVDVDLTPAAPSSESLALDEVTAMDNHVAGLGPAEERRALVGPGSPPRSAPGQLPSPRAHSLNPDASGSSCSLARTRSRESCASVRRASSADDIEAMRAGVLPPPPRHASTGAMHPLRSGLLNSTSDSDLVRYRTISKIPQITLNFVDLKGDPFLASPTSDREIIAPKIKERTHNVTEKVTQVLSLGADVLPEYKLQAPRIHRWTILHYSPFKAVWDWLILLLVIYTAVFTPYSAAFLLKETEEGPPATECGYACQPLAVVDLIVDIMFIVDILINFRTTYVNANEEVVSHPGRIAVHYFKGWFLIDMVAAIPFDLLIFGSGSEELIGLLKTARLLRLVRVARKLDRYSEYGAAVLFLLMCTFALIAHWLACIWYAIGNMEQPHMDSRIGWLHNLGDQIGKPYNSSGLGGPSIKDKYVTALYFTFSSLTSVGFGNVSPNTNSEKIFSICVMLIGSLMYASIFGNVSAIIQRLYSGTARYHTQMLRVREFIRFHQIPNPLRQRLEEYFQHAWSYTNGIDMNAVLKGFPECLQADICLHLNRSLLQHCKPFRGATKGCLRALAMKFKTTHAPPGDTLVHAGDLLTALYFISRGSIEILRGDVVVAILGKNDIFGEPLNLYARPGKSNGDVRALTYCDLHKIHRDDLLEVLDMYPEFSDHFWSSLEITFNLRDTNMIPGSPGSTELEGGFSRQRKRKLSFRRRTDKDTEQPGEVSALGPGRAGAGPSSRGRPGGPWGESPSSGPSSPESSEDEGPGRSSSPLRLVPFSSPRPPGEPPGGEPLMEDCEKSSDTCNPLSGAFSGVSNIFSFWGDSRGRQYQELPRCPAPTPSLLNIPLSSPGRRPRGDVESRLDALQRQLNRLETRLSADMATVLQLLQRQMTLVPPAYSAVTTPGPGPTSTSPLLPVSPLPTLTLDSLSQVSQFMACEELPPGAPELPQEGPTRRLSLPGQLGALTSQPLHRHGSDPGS
T4 sequence (P11940 whole entry): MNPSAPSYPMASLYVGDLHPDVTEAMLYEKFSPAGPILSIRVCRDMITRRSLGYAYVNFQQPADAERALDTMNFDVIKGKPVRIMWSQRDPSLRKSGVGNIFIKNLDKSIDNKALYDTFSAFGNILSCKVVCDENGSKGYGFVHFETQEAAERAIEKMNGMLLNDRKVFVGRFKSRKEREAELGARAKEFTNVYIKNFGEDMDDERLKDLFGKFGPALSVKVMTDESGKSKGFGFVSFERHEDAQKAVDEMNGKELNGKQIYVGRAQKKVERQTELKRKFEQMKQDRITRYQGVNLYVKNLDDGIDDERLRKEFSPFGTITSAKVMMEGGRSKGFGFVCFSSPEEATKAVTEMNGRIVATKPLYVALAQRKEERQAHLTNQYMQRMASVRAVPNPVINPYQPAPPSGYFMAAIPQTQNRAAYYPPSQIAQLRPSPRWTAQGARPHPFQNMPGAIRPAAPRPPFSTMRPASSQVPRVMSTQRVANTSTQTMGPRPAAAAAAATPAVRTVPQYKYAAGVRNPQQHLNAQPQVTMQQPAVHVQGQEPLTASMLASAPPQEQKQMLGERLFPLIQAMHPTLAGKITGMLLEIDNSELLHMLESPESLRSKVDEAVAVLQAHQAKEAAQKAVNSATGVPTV
Chain of Genome polyprotein (P29990 2492-3391 limits assumed): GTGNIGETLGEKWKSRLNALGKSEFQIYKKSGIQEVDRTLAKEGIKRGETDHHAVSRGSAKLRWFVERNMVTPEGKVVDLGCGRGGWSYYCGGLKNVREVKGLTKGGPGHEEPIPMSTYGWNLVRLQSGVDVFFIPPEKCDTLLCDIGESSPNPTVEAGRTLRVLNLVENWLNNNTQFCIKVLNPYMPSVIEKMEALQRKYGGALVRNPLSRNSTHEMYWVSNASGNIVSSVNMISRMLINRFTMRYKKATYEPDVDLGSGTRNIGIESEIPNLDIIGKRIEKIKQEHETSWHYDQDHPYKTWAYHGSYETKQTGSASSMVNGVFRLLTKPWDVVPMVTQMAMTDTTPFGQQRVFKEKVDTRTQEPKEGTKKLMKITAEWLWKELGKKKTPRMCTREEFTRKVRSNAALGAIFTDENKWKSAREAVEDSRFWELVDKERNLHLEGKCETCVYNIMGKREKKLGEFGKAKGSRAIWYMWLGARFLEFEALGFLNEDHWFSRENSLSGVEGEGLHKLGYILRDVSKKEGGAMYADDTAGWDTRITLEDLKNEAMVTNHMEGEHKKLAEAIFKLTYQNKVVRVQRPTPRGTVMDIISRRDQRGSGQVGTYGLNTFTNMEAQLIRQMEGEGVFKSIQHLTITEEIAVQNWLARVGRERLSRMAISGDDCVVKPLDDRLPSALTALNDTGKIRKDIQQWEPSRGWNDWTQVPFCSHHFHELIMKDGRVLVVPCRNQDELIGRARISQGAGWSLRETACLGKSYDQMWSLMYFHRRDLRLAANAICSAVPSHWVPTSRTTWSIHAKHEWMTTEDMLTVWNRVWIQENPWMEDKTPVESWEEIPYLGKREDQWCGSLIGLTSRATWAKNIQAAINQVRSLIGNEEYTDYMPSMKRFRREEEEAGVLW

Structure (SMILES): C#C[C@]1(O)CC[C@H]2[C@@H]3CCC4=Cc5oncc5CC4(C)[C@H]3CCC21C (stereo not given in full)
AC50 [1]: 1.58 µM (inconclusive)

Structure (SMILES): Cc1cc(CN(C)C(=O)c2ccc3nc(Cc4ccccc4F)oc3c2)on1
AC50 (HeLa): 68.2 µM (active)

Structure (SMILES): [H][C@]12[N@]3CC=C[C@@]1(CC)[C@@H](OC(C)=O)[C@](O)(C(=O)OC)C1N(C)c4cc(OC)c([C@@]5(C(=O)OC)CC6CN(CCc7c5[nH]c5ccccc75)CC(O)(CC)C6)cc4[C@@]12CC3 (stereo not given in full)
AC50 [1]: 35.5 µM (inconclusive)

Structure (SMILES): COc1ccc(S(=O)(=O)N(C)C[C@@H]2OCc3cnnn3CCCC(=O)N([C@@H](C)CO)C[C@H]2C)cc1
AC50 [7]: 1.75 µM (active)
AC50 [8]: 2.36 µM (active)
AC50 [9]: > 52 µM (inactive)
AC50 [10]: > 52 µM (inactive)

Structure (SMILES): O=[N+]([O-])c1ccccc1N/N=C\c1ccccc1Cl
EC50 (BJ [11]): 103 µM (active)
EC50 (BJ [12]): > 150 µM (not active)
EC50 (BJ [13]): > 150 µM (not active)
EC50 (BJ [14]): > 133 µM (inactive)
EC50 [15]: 29.8 µM (inconclusive)

Structure (SMILES): C(=NC1CCCCC1)=NC1CCCCC1 [DICYCLOHEXYLCARBODIIMIDE]
AC50 [1]: 70.8 µM (inconclusive)

Structure (SMILES): COC(=O)[C@H]1[C@H]2C[C@H]3c4[nH]c5ccccc5c4CCN3C[C@H]2CC[C@@H]1O [RAUWOLSCINE HYDROCHLORIDE]
AC50 [1]: 25.1 µM (inconclusive)

Other lines, results leading:

IC50 (Prothrombin): 1.06 µM (active)
EC50 [2]: > 53 µM (inactive)
Structure (SMILES): Cn1c(CN2CCCCC2)nc2cc(NS(=O)(=O)c3ccc(Cl)cc3)ccc21

IC50 (Prothrombin): 0.321 µM (active)
Structure (SMILES): Cn1c(=O)c2cc(NC(=O)c3ccccc3Cl)c(=O)oc2n(C)c1=O

EC50 [3]: 37.1 µM (active)
IC50 (Genome polyprotein): 39.7 µM (active)
Structure (SMILES): O=C(O)C(Cc1ccccc1)N1C(=O)c2c(Cl)c(Cl)c(Cl)c(Cl)c2C1=O (stereo not given)

IC50 [4]: > 100 µM (inactive)
Structure (SMILES): COc1ccc(CN(C)C(=O)c2cc(S(=O)(=O)NCc3ccccc3)ccc2C)c(OC)c1

IC50 [5]: > 66 µM (inactive)
IC50 [6]: > 66 µM (inactive)
IC50 (Estrogen receptor): 10.2 µM (active)
Structure (SMILES): O=S(=O)(/N=C(/Sc1ccccc1)c1ccccc1)c1ccccc1

IC50 (Prothrombin): > 50 µM (not active)
Structure (SMILES): O=C(O)c1ccc(/C=N/NC(=O)c2ccc(F)cc2)cc1

IC50 (Prothrombin): > 50 µM (not active)
Structure (SMILES): C/C(=N\Nc1ccc(Cl)c(C(=O)O)c1)c1cccc([N+](=O)[O-])c1

Source: ChEMBL document CHEMBL1201862, “PubChem BioAssay data set” (2004)
